Data reported in article PMC10582583, “The novel cyclophilin inhibitor C105SR reduces hepatic ischaemia–reperfusion injury via mitoprotection” (JHEP Reports, 2023).

What was measured:
CypD = CypD (Homo sapiens, UniProt P30405); assay: CypD PPIase activity, chymotrypsin-coupled assay; assay type: biochemical; conditions: Table 1
[1] = system: isolated mouse liver mitochondria; assay: Calcium retention capacity (CRC) assay in isolated liver mitochondria; assay type: biochemical
[2] = system: isolated mouse liver mitochondria; assay: Ca2+-induced mitochondrial swelling assay; assay type: biochemical; conditions: energised isolated mouse liver mitochondria
AML-12 cells [3] = assay: mPTP opening, CoCl2-calcein AM fluorescence-quenching assay, hypoxia/reoxygenation; assay type: cell-based, mouse; conditions: 1 μM; 4 h hypoxia, 1 h reoxygenation
Description: We next evaluated the ability of compounds C105SR and C110SR to inhibit mPTP opening in cells. The hepatocyte cell line AML-12 was subjected to 4 h of hypoxia followed by 1 h of reoxygenation and mPTP opening was monitored using the CoCl2-calcein-acetoxymethyl ester (AM) fluorescence-quenching method.[19] Calcein-AM is a membrane permeable fluorophore which passively diffuses in all subcellular compartments including mitochondria. In the cell, the AM group of the fluorophore is cleaved by ubiquitous intracellular esterases, generating a hydrophilic product that is retained within the cell. The cells are then loaded with the divalent cobalt cation (Co^2+), which quenches calcein fluorescence in all subcellular compartments except the mitochondrial matrix, because the inner mitochondrial membrane is impermeable to cobalt. However, when mPTP is open, cobalt enters mitochondria and quenches mitochondrial calcein fluorescence. […]
Hypoxia/reoxygenation (H/R) in vitro model. AML-12 mouse hepatocyte line was obtained from American Type Culture Collection (ATCC) and maintained in DMEM/F12 culture medium at 37°C with 5% CO2. HepaRG human hepatocyte line was obtained from American Type Culture Collection (ATCC) and maintained in William’S E culture medium at 37°C with 5% CO2.When indicated, cells were incubated in phosphate buffered saline at 37°C in a hypoxic chamber filled with 94% N2, 1% O2, 5% CO2 for 4 h to mimic ischemic conditions. Then, cells were transferred to a CO2 incubator at 37°C in regular DMEM/F12 culture medium for 1 or 2 h under normoxic conditions (74% N2, 21% O2, 5% CO2). SMCypIs or vehicle (DMSO) were added during the hypoxia period, during the reoxygenation period, or during both. CsA and ALV were used as positive controls for hepatic protection against H/R injury.
Monitoring of mPTP opening. mPTP opening was monitored in AML-12 cells using the CoCl2-calcein AM fluorescence-quenching assay. Cells were loaded with 1 µM calcein-AM (green) for 20 min. Then, 1 mM CoCl2 was added and cells were incubated for another 10 min. Cells were washed and subjected to 4 h of hypoxia followed by 1 h of reoxygenation. Calcein fluorescence was measured using a spectrofluorimeter at excitation and emission wavelengths of 485 nm and 535 nm, respectively. Images were acquired using a standard inverted fluorescence microscope (Zeiss Axio, […]
media during the entire H/R period. Images shown are representative images of 12-18 images. […]
Optical density of purple formazan product was measured at 550 nm. […]

AML-12 cells [4] = assay: Propidium iodide staining, hypoxia/reoxygenation; assay type: cell-based, mouse; conditions: 1 μM; 4 h hypoxia, 1 h reoxygenation
Description: To assess whether the new SMCypIs reduced mPTP opening-induced cell death, propidium iodide fluorescence was measured in cells that had been co-loaded with calcein-AM. As expected, the loss of calcein fluorescence in cells subjected to hypoxia/reoxygenation was associated with enhanced propidium iodide fluorescence (Fig. 3A and 3C).
Calcium retention capacity (CRC) assay. Isolated liver mitochondria (1 mg/mL) energized with 5 mM glutamate/malate were incubated in a buffer allowing respiration of mitochondria (100 mM KCl, 50 mM sucrose, 10 mM HEPES, 5 mM KH2PO4, pH 7.4 at 30°C) supplemented with 1 µM calcium green 5N fluorescent probe. Mitochondria were pulsed with sequential additions of CaCl2 (20 µM) until mPTP opening along with rapid calcium release happened. The calcium concentration in the extra-mitochondrial medium was monitored with a Jasco FP-6300 spectrofluorimeter (Jasco, Bouguenais, France) at 506 nm excitation and 532 nm emission wavelengths.
Mitochondrial swelling assay. Mitochondrial swelling was assessed by measuring changes in absorbance at 540 nm using a Jasco V-530 spectrophotometer (Bouguenais, France) equipped with magnetic stirring and thermostatic control (30°C). […]
Monitoring of mPTP opening. mPTP opening was monitored in AML-12 cells using the CoCl2-calcein AM fluorescence-quenching assay. […] Calcein fluorescence was measured using a spectrofluorimeter at excitation and emission wavelengths of 485 nm and 535 nm, respectively. Images were acquired using a standard inverted fluorescence microscope (Zeiss Axio, […]
Propidium iodide staining. […] Fluorescence was measured using an Infinite 200 Pro fluorescent plate reader (Tecan, Mannedorf, Switzerland) at excitation and emission wavelengths of 533 nm and 617 nm, respectively. Images were acquired using a standard inverted fluorescence microscope (Zeiss Axio, Oberkochen, Germany). […]
Cell viability assays. Lactate dehydrogenase (LDH) release in culture medium was assessed using the commercially non-radioactive CytoTox-96 kit (Promega, Madison, Wisconsin) following the manufacturer’s instructions. […]

Sequence of CypD (P30405 30-207): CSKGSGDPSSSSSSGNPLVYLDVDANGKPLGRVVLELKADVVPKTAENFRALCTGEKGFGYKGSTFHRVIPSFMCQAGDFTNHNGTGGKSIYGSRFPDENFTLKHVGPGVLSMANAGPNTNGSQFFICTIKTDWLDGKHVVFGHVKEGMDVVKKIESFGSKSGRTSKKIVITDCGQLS

IC50 (CypD): 30 ± 5 nM | EC50 ([1]; isolated mouse liver mitochondria): 80 ± 20 nM | IC50 [2]: 50 ± 20 nM
Structure (SMILES): C/C=C/C[C@@H](C)[C@@H](O)[C@H]1C(=O)N[C@@H](CC)C(=O)N(C)[C@H](C)C(=O)N(CC)[C@@H](C(C)C)C(=O)N[C@@H](C(C)C)C(=O)N(C)[C@@H](CC(C)C)C(=O)N[C@@H](C)C(=O)N[C@H](C)C(=O)N(C)[C@@H](CC(C)C)C(=O)N(C)[C@@H](CC(C)C)C(=O)N(C)[C@@H](C(C)C)C(=O)N1C [ALV, alisporivir, reference compound]
amount of Ca2+ required to open mPTP (CRC) ([1]; compound at 1 μM, basal 160 ± 8): 373 ± 59 nmol Ca2+/mg of mitochondrial | prevention of mPTP opening (loss of calcein fluorescence) (AML-12 cells [3]): substantially prevented | propidium iodide fluorescence (AML-12 cells [4]): low propidium iodide fluorescence
